The values below come from patent US7238670B2, “Human glucagon-like-peptide-1 mimics and their use in the treatment of diabetes and related conditions” (Bristol-Myers Squibb Company, priority 2001, dated 2007).

Read-outs that look alike come from different tables or passages of the source. A value given as a limit tells only on which side of the number the result lay.

This assay has as its target T1, human glucagon-like peptide 1 receptor (Homo sapiens, UniProt P43220).
T1 construct: Full-length human glucagon-like peptide 1 receptor was stably expressed in CHO-K1 cells; expressed in transfected cells; host or cells: CHO-K1 (clone CHO-GLP1R-19)
Kind of assay: Cyclic AMP determination in CHO-K1 cells stably expressing the GLP-1 receptor (cAMP SPA). It counts as cell-based. To be noted: CHO-GLP1R-19 cells, read-out: EC50, stimulation of cAMP production. How it is done: CHO-GLP-1R-19 cells (2,500 in 100 μl of media) were plated into each well of a 96-well tissue culture microtiter plate and incubated in 5% CO2 atmosphere at 37° C., for 72 h. On the day of the assay, cells were washed once with 100 μl of PBS. […] After incubation at room temperature for 15-18 h, plates were counted 2 min each/well in a TopCount NXT(Packard).
The data obtained was processed in Excel-fit database. From a cyclic AMP standard curve, the amounts of released cAMP were determined and the % maximal activity was calculated and plotted against log compound concentration. The data was analyzed by nonlinear regression curve fit (sigmoidal dose) to determine the EC50 of the compounds.
(In general: Changes in cAMP serve as a functional read-out for many G protein-coupled receptors.)

T1 sequence (P43220 24-463): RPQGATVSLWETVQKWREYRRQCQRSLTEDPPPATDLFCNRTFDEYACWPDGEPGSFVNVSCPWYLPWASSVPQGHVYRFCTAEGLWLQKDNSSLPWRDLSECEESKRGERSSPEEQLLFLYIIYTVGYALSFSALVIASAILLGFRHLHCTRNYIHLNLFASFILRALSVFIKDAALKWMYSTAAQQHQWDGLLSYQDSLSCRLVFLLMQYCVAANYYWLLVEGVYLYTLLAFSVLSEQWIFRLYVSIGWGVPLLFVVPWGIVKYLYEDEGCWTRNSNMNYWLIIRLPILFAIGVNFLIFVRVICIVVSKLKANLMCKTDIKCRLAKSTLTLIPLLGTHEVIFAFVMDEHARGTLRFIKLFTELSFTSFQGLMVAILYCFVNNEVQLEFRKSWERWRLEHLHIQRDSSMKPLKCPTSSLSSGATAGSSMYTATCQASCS

As to `C[C@H](NC(=O)[C@@H](N)Cc1c[nH]cn1)C(=O)N[C@@H](CCC(=O)O)C(=O)NCC(=O)N[C@H](C(=O)N[C@@H](Cc1ccccc1)C(=O)N[C@H](C(=O)N[C@@H](CO)C(=O)N[C@@H](CC(=O)O)C(N)=O)[C@@H](C)O)[C@@H](C)O`, the 50% effective concentration (EC50) (usually the concentration giving half of the maximal effect) (same assay) was greater than 1000 µM.

In the case of `C[C@H](NC(=O)[C@@H](N)Cc1cnc[nH]1)C(=O)N[C@@H](CCC(=O)O)C(=O)NCC(=O)N[C@H](C(=O)N[C@@H](Cc1ccccc1)C(=O)N[C@H](C(=O)N[C@@H](CO)C(=O)N[C@@H](CC(=O)O)C(=O)N[C@@H](Cc1ccc(-c2ccccc2)cc1)C(=O)N[C@@H](Cc1ccc(-c2ccccc2)cc1)C(N)=O)[C@@H](C)O)[C@@H](C)O` [GLP-1 11-mer peptide analog, His-Ala-Clu-Gly-Thr-Phe-Thr-Ser-Asp-Bip-Bip-NH2], the concentration giving a half-maximal response (EC50) (determined as in Example 13) was 1.1 µM.
